According to ChEMBL document CHEMBL5154781, “Discovery of Novel Sertraline Derivatives as Potent Anti-Cryptococcus Agents” (J Med Chem, 2022):
Values after ≈ are worked out from the molar mass of the structure shown. Active and inactive are the calls of the source. No cut-off for these calls is given here.

Experiments:
[1] = Metabolic stability in mouse liver microsomes assessed as half life; format: ADME, Microsome
[2] = Metabolic stability in mouse liver microsomes assessed as clearance; format: ADME, Microsome
[3] = […] in ICR mouse model of Cryptococcal meningitis infected with Cryptococcus neoformans H99 assessed as median survival time at 15 mg/kg, IG administered daily (reference value: 11 day); format: organism-based; conditions: in vivo, po, 264 h
[4] = test system: Cryptococcus neoformans; assay: microbe, parasite or virus in culture; format: functional, organism-based; conditions: H99, 72 h
Description: Anti-cryptococcal activity against Cryptococcus neoformans H99 assessed as inhibition of fungal growth incubated for 72 hrs by microdilution method

[5] = test system: Cryptococcus neoformans; assay: Anti-cryptococcal activity against Cryptococcus neoformans H99 assessed as inhibition of fungal growth at 1 to 8 ug/ml incubated upto 72 hrs by time-growth curve assay; format: functional, organism-based; conditions: dose 1-8 µg/ml
[6] = test system: Cryptococcus neoformans; assay: Inhibition of biofilm formation in Cryptococcus neoformans H99 at 8 ug/ml incubated for 24 hrs by XTT reduction assay; format: functional
[7] = test system: [Candida] auris; assay: microbe, parasite or virus in culture; format: functional, organism-based; conditions: Candidozyma auris, 0030, 48 h
Description: Antifungal activity against Candida auris 0030 assessed as inhibition of fungal growth incubated for 48 hrs by microdilution method

[8] = test system: Candida albicans; assay: microbe, parasite or virus in culture; format: functional, organism-based; conditions: SC5314, 48 h
Description: Antifungal activity against Candida albicans SC5314 assessed as inhibition of fungal growth incubated for 48 hrs by microdilution method

[9] = test system: Candida albicans; assay: microbe, parasite or virus in culture; format: functional, organism-based; conditions: Candida albicans, 904, 48 h
Description: Antifungal activity against Candida albicans 904 assessed as inhibition of fungal growth incubated for 48 hrs by microdilution method

[10] = test system: Candida albicans; assay: microbe, parasite or virus in culture; format: functional, organism-based; conditions: Candida albicans, 0304103, 48 h
Description: Antifungal activity against Candida albicans 0304103 assessed as inhibition of fungal growth incubated for 48 hrs by microdilution method

[11] = test system: Candida tropicalis; assay: microbe, parasite or virus in culture; format: functional, organism-based; conditions: Candida tropicalis, 10186, 48 h
Description: Antifungal activity against Candida tropicalis 10186 assessed as inhibition of fungal growth incubated for 48 hrs by microdilution method

[12] = test system: Nakaseomyces glabratus; assay: microbe, parasite or virus in culture; format: functional, organism-based; conditions: Nakaseomyces glabratus, 9073, 48 h
Description: Antifungal activity against Candida glabrata 9073 assessed as inhibition of fungal growth incubated for 48 hrs by microdilution method

[13] = test system: Nakaseomyces glabratus; assay: microbe, parasite or virus in culture; format: functional, organism-based; conditions: Nakaseomyces glabratus, 9025, 48 h
Description: Antifungal activity against Candida glabrata 9025 assessed as inhibition of fungal growth incubated for 48 hrs by microdilution method

[14] = test system: Pichia kudriavzevii; assay: microbe, parasite or virus in culture; format: functional, organism-based; conditions: Pichia kudriavzevii, 10153, 48 h
Description: Antifungal activity against Candida krusei 10153 assessed as inhibition of fungal growth incubated for 48 hrs by microdilution method

[15] = test system: [Candida] auris; assay: microbe, parasite or virus in culture; format: functional, organism-based; conditions: Candidozyma auris, 0029, 48 h
Description: Antifungal activity against Candida auris 0029 assessed as inhibition of fungal growth incubated for 48 hrs by microdilution method

[16] = test system: [Candida] auris; assay: Antifungal activity against Candida auris 15448 assessed as inhibition of fungal growth incubated for 48 hrs by microdilution method; format: functional, organism-based; conditions: Candidozyma auris, 15448, 48 h
[17] = test system: Aspergillus fumigatus; assay: microbe, parasite or virus in culture; format: functional, organism-based; conditions: Aspergillus fumigatus, 7544, 48 h
Description: Antifungal activity against Aspergillus fumigatus 7544 assessed as inhibition of fungal growth incubated for 48 hrs by microdilution method

[18] = test system: Aspergillus fumigatus; assay: microbe, parasite or virus in culture; format: functional, organism-based; conditions: 023-2, 48 h
Description: Antifungal activity against Aspergillus fumigatus 023-2 assessed as inhibition of fungal growth incubated for 48 hrs by microdilution method

[19] = test system: Cryptococcus neoformans; assay: Inhibition of Cryptococcus neoformans H99 delta5,6-desaturase assessed as upregulation of ERG1 gene expression at 2 ug/ml incubated for 24 hrs by RT-PCR analysis; conditions: dose 2.0 µg/ml
[20] = test system: Cryptococcus neoformans; assay: Inhibition of Cryptococcus neoformans H99 delta5,6-desaturase assessed as upregulation of ERG2 gene expression at 2 ug/ml incubated for 24 hrs by RT-PCR analysis; conditions: dose 2.0 µg/ml
[21] = test system: Cryptococcus neoformans; assay: Inhibition of Cryptococcus neoformans H99 delta5,6-desaturase assessed as upregulation of ERG3 gene expression at 2 ug/ml incubated for 24 hrs by RT-PCR analysis; conditions: dose 2.0 µg/ml
[22] = test system: Cryptococcus neoformans; assay: Inhibition of Cryptococcus neoformans H99 delta5,6-desaturase assessed as upregulation of ERG4 gene expression at 2 ug/ml incubated for 24 hrs by RT-PCR analysis; conditions: dose 2.0 µg/ml
[23] = test system: Cryptococcus neoformans; assay: Inhibition of Cryptococcus neoformans H99 delta5,6-desaturase assessed as upregulation of ERG5 gene expression at 2 ug/ml incubated for 24 hrs by RT-PCR analysis; conditions: dose 2.0 µg/ml
[24] = test system: Cryptococcus neoformans; assay: Inhibition of Cryptococcus neoformans H99 delta5,6-desaturase assessed as upregulation of ERG11 gene expression at 2 ug/ml incubated for 24 hrs by RT-PCR analysis; conditions: dose 2.0 µg/ml
[25] = test system: Cryptococcus neoformans; assay: Inhibition of Cryptococcus neoformans H99 delta5,6-desaturase assessed as upregulation of ERG24 gene expression at 2 ug/ml incubated for 24 hrs by RT-PCR analysis; conditions: dose 2.0 µg/ml
[26] = microbe, parasite or virus in culture; format: functional; conditions: Cryptococcus; time 72 hrs
Description: Anti-cryptococcal activity against Cryptococcus assessed as inhibition of fungal growth incubated for 72 hrs by microdilution method

[27] = test system: Cryptococcus neoformans; assay: Fungicidal activity against Cryptococcus neoformans H99 assessed as fungal growth inhibition incubated upto 72 hrs by time-fungicidal curve assay; format: functional

## CN[C@H]1CC[C@@H](c2ccc(Cl)c(Cl)c2)c2ccccc21 [SERTRALINE]
[1]
  half-life: 41.5 min
[2]
  CLH: 132 µL/min/mg
[3]
  MST: 11.5 days

## CN1CCC(CCNC2CCC(c3ccc(Cl)c(Cl)c3)c3sccc32)CC1.Cl (stereo not given)
[4]
  IC50: 2 µg/mL

## Nc1nc(=O)[nH]cc1F [FLUCYTOSINE]
[4]
  IC50: 2 µg/mL (≈ 15.5 µM)

## CC(C)NC1CCC(c2ccc(Cl)c(Cl)c2)c2sccc21.Cl (stereo not given)
[4]
  IC50: 16 µg/mL

## OC(Cn1cncn1)(Cn1cncn1)c1ccc(F)cc1F [FLUCONAZOLE]
[5]
  Activity: Active
[6]
  inhibition at 8 µg/mL: 50%
[7]
  IC50: > 64 µg/mL
[4]
  IC50: 2 µg/mL (≈ 6.53 µM)
[8]
  IC50: 0.25 µg/mL (≈ 0.816 µM)
[9]
  IC50: > 64 µg/mL
[10]
  IC50: > 64 µg/mL
[11]
  IC50: > 64 µg/mL
[12]
  IC50: 64 µg/mL (≈ 209 µM)
[13]
  IC50: 16 µg/mL (≈ 52.2 µM)
[14]
  IC50: 64 µg/mL (≈ 209 µM)
[15]
  IC50: > 64 µg/mL
[16]
  IC50: 4 µg/mL (≈ 13.1 µM)
[17]
  IC50: > 64 µg/mL
[18]
  IC50: > 64 µg/mL
[19]
  Activity: Active
[20]
  Activity: Active
[21]
  Activity: Active
[22]
  Activity: Active
[23]
  Activity: Active
[24]
  Activity: Active
[25]
  Activity: Active
[26]
  MIC50: 1.14 µg/mL (≈ 3.72 µM)

## Cl.Clc1ccc(C2CCC(NC3CCOCC3)c3ccsc32)cc1Cl (stereo not given)
[4]
  IC50: 4 µg/mL

## Cl.Clc1ccc(C2CCC(NCc3ccccc3)c3ccsc32)cc1Cl (stereo not given)
[4]
  IC50: 32 µg/mL

## O=C(c1ccc(F)cc1)C1CCN(CCn2c(=O)[nH]c3ccccc3c2=O)CC1 [KETANSERIN]
[1]
  half-life: 20.1 min
[2]
  CLH: 271 µL/min/mg

## Cl.O=C(CNC1CCC(c2ccc(Cl)c(Cl)c2)c2sccc21)N1CCCCC1 (stereo not given)
[4]
  IC50: 8 µg/mL

## Cl.Clc1ccc(C2CCC(NCCC3CCCCC3)c3ccsc32)cc1 (stereo not given)
[4]
  IC50: 64 µg/mL

## C[C@@H]1[C@H](O)[C@@H](C)/C=C/C=C/C=C/C=C/C=C/C=C/C=C/[C@H](O[C@@H]2O[C@H](C)[C@@H](O)[C@H](N)[C@@H]2O)C[C@@H]2O[C@](O)(C[C@@H](O)C[C@@H](O)[C@H](O)CC[C@@H](O)C[C@@H](O)CC(=O)O[C@H]1C)C[C@H](O)[C@H]2C(=O)O [AMPHOTERICIN B]
[27]
  MFC: 4 µg/mL (≈ 4.33 µM)
[4]
  IC50: 0.25 µg/mL (≈ 0.271 µM)
[26]
  MIC50: 0.13 µg/mL (≈ 0.141 µM)

## Cc1ccc(C2CCC(NCCC3CCCCC3)c3ccsc32)cc1C.Cl (stereo not given)
[4]
  IC50: 32 µg/mL

## Cl.Clc1ccc(C2CCC(NC3CCCCC3)c3ccsc32)cc1Cl (stereo not given)
[4]
  IC50: 8 µg/mL
